Data taken from PubChem BioAssay (NCI).
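Results reflect a 48-hour exposure of cells in 96-well plates to compound at five concentrations. At the TGI there is no net growth.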

Experiments:
Experiment in all cases: NCI anticancer screen, dose series, 48 h
HOP-62 NSCLC = tested on: HOP-62 NSCLC
NCI-H460 lung = tested on: NCI-H460 lung
RXF 393 renal = tested on: RXF 393 renal
MOLT-4 leukemia = tested on: MOLT-4 leukemia
KM12 colon = tested on: KM12 colon
HL-60(TB) leukemia = tested on: HL-60(TB) leukemia
EKVX NSCLC = tested on: EKVX NSCLC
A498 renal = tested on: A498 renal
786-0 renal = tested on: 786-0 renal
IGROV1 ovarian = tested on: IGROV1 ovarian
CCRF-CEM leukemia = tested on: CCRF-CEM leukemia
HOP-18 NSCLC = tested on: HOP-18 NSCLC
KM20L2 colon = tested on: KM20L2 colon
HT29 colon = tested on: HT29 colon
HOP-92 NSCLC = tested on: HOP-92 NSCLC
TK-10 renal = tested on: TK-10 renal
M19-MEL melanoma = tested on: M19-MEL melanoma
SK-MEL-5 melanoma = tested on: SK-MEL-5 melanoma
OVCAR-3 ovarian = tested on: OVCAR-3 ovarian
SK-MEL-28 melanoma = tested on: SK-MEL-28 melanoma
COLO 205 colon = tested on: COLO 205 colon
A549 NSCLC = tested on: A549 NSCLC
HCT-116 colon = tested on: HCT-116 colon
SNB-75 CNS = tested on: SNB-75 CNS
UO-31 renal = tested on: UO-31 renal
SN12C renal = tested on: SN12C renal
UACC-62 melanoma = tested on: UACC-62 melanoma
NCI-H522 lung = tested on: NCI-H522 lung
RXF-631 renal = tested on: RXF-631 renal
SNB-19 CNS = tested on: SNB-19 CNS
NCI-H226 lung = tested on: NCI-H226 lung
DMS 114 small cell lung = tested on: DMS 114 small cell lung
XF 498 CNS = tested on: XF 498 CNS
DLD-1 colon = tested on: DLD-1 colon
RPMI-8226 leukemia = tested on: RPMI-8226 leukemia
SR leukemia = tested on: SR leukemia
OVCAR-8 ovarian = tested on: OVCAR-8 ovarian
CAKI-1 renal = tested on: CAKI-1 renal
SF-268 CNS = tested on: SF-268 CNS
OVCAR-5 ovarian = tested on: OVCAR-5 ovarian
ACHN renal = tested on: ACHN renal
SK-OV-3 ovarian = tested on: SK-OV-3 ovarian
M14 melanoma = tested on: M14 melanoma
NCI-H23 lung = tested on: NCI-H23 lung
SF-295 CNS = tested on: SF-295 CNS
HCT-15 colon = tested on: HCT-15 colon
HCC-2998 colon = tested on: HCC-2998 colon
OVCAR-4 ovarian = tested on: OVCAR-4 ovarian
UACC-257 melanoma = tested on: UACC-257 melanoma
MALME-3M melanoma = tested on: MALME-3M melanoma
U251 CNS = tested on: U251 CNS
SW-620 colon = tested on: SW-620 colon
SF-539 CNS = tested on: SF-539 CNS
K-562 leukemia = tested on: K-562 leukemia
LOX IMVI melanoma = tested on: LOX IMVI melanoma
LXFL 529 NSCLC = tested on: LXFL 529 NSCLC
SK-MEL-2 melanoma = tested on: SK-MEL-2 melanoma
SNB-78 CNS = tested on: SNB-78 CNS
DMS 273 small cell lung = tested on: DMS 273 small cell lung

C(=C\c1cc(CCc2nc3ccccc3[nH]2)[nH]n1)/c1ccccc1
TGI (HOP-62 NSCLC): > 100 µM
TGI (NCI-H460 lung): > 100 µM
TGI (RXF 393 renal): > 100 µM
TGI (MOLT-4 leukemia): > 100 µM
TGI (KM12 colon): > 100 µM
TGI (HL-60(TB) leukemia): > 100 µM
TGI (EKVX NSCLC): > 100 µM
TGI (A498 renal): > 100 µM
TGI (786-0 renal): > 100 µM
TGI (IGROV1 ovarian): > 100 µM
TGI (CCRF-CEM leukemia): > 100 µM
TGI (HOP-18 NSCLC): > 100 µM
TGI (KM20L2 colon): > 100 µM
TGI (HT29 colon): > 100 µM
TGI (HOP-92 NSCLC): > 100 µM
TGI (TK-10 renal): > 100 µM
TGI (M19-MEL melanoma): > 100 µM
TGI (SK-MEL-5 melanoma): > 100 µM
TGI (OVCAR-3 ovarian): > 100 µM
TGI (SK-MEL-28 melanoma): > 100 µM
TGI (COLO 205 colon): > 100 µM
TGI (A549 NSCLC): > 100 µM
TGI (HCT-116 colon): > 100 µM
TGI (SNB-75 CNS): > 100 µM
TGI (UO-31 renal): > 100 µM
TGI (SN12C renal): > 100 µM
TGI (UACC-62 melanoma): > 100 µM
TGI (NCI-H522 lung): > 100 µM
TGI (RXF-631 renal): > 100 µM
TGI (SNB-19 CNS): > 100 µM
TGI (NCI-H226 lung): > 100 µM
TGI (DMS 114 small cell lung): > 100 µM
TGI (XF 498 CNS): > 100 µM
TGI (DLD-1 colon): > 100 µM
TGI (RPMI-8226 leukemia): > 100 µM
TGI (SR leukemia): > 100 µM
TGI (OVCAR-8 ovarian): > 100 µM
TGI (CAKI-1 renal): > 100 µM
TGI (SF-268 CNS): > 100 µM
TGI (OVCAR-5 ovarian): > 100 µM
TGI (ACHN renal): > 100 µM
TGI (SK-OV-3 ovarian): > 100 µM
TGI (M14 melanoma): > 100 µM
TGI (NCI-H23 lung): > 100 µM
TGI (SF-295 CNS): > 100 µM
TGI (HCT-15 colon): > 100 µM
TGI (HCC-2998 colon): > 100 µM
TGI (OVCAR-4 ovarian): > 100 µM
TGI (UACC-257 melanoma): > 100 µM
TGI (MALME-3M melanoma): > 100 µM
TGI (U251 CNS): > 100 µM
TGI (SW-620 colon): > 100 µM
TGI (SF-539 CNS): > 100 µM
TGI (K-562 leukemia): > 100 µM
TGI (LOX IMVI melanoma): > 100 µM

Cn1cc(NC(=O)c2cc(NC(=O)CCCCCCCCC(=O)Nc3cc(C(=O)Nc4cc(C(=O)NCCC(N)N)n(C)c4)n(C)c3)cn2C)cc1C(=O)NCCC(=N)N
TGI (LXFL 529 NSCLC): 76.9 µM
TGI (HOP-62 NSCLC): 59.4 µM
TGI (NCI-H460 lung): 62 µM
TGI (RXF 393 renal): 43.2 µM
TGI (MOLT-4 leukemia): 49.1 µM
TGI (KM12 colon): 63.4 µM
TGI (SK-MEL-2 melanoma): 49.3 µM
TGI (EKVX NSCLC): 48.1 µM
TGI (786-0 renal): 47.1 µM
TGI (IGROV1 ovarian): 74.4 µM
TGI (CCRF-CEM leukemia): 49.3 µM
TGI (HOP-18 NSCLC): 47.2 µM
TGI (KM20L2 colon): 44 µM
TGI (SNB-78 CNS): 93.1 µM
TGI (HT29 colon): 49.7 µM
TGI (HOP-92 NSCLC): 65.2 µM
TGI (TK-10 renal): 38.9 µM
TGI (M19-MEL melanoma): 66 µM
TGI (SK-MEL-5 melanoma): 30.2 µM
TGI (OVCAR-3 ovarian): 74.5 µM
TGI (SK-MEL-28 melanoma): 43.2 µM
TGI (COLO 205 colon): > 100 µM
TGI (A549 NSCLC): 40 µM
TGI (HCT-116 colon): 55.3 µM
TGI (SNB-75 CNS): 55.3 µM
TGI (UO-31 renal): 56.9 µM
TGI (SN12C renal): 68.9 µM
TGI (UACC-62 melanoma): 60.1 µM
TGI (NCI-H522 lung): 79.2 µM
TGI (RXF-631 renal): 71.2 µM
TGI (SNB-19 CNS): 62.5 µM
TGI (NCI-H226 lung): 70.7 µM
TGI (DMS 273 small cell lung): 55.8 µM
TGI (XF 498 CNS): 66.8 µM
TGI (DLD-1 colon): 73.9 µM
TGI (RPMI-8226 leukemia): 28.6 µM
TGI (OVCAR-8 ovarian): 52.4 µM
TGI (CAKI-1 renal): 49.7 µM
TGI (SF-268 CNS): 66.1 µM
TGI (OVCAR-5 ovarian): 45.3 µM
TGI (ACHN renal): 36.5 µM
TGI (SK-OV-3 ovarian): 78.7 µM
TGI (M14 melanoma): 66.3 µM
TGI (NCI-H23 lung): > 100 µM
TGI (SF-295 CNS): 74.8 µM
TGI (HCT-15 colon): > 100 µM
TGI (HCC-2998 colon): 52 µM
TGI (OVCAR-4 ovarian): > 100 µM
TGI (UACC-257 melanoma): 57 µM
TGI (MALME-3M melanoma): 15.5 µM
TGI (U251 CNS): 36.8 µM
TGI (SW-620 colon): 44.9 µM
TGI (SF-539 CNS): 54.4 µM
TGI (K-562 leukemia): 40.9 µM
TGI (LOX IMVI melanoma): > 100 µM
